Measurements: patent US20200354327A1, “COMPOUND HAVING STAT3 INHIBITORY ACTIVITY AND USE THEREOF” (CYTUS H&B CO., LTD., priority 2017, published 2020)

How the values were obtained:
STAT3 [1] = target: T1, STAT3 (Homo sapiens, UniProt P40763); test: Western blot in U87-MG and MDA-MB-231 cells; format: cell-based; set-up: endogenous in cells; host or cells: L540, HDLM-2, U87-MG, MDA-MB-231, further human glioblastoma and breast cancer lines
Method: (§1) The human cancer cell lines used in the experiment were U87-MG (human malignant glioblastoma) and MDA-MB-231 (human malignant breast cancer) cell lines, and various kinds of human-derived blood and solid cancer cells including these human cancer cell lines were cultured as previously described (Jung J E, et al. FASEB J. 19, 1296-1298 (2005)). The human Hodgkin lymphoma cancer cell lines L540 and HLDM-2 used in the experiment were obtained from the German Collection of Microorganism and Cell Cultures (DSMZ, Germany) and cultured using RPMI 1640 medium containing 20% FBS in a 5% CO2 incubator at a temperature of 37° C.
(§2) Western blot analysis was performed (Jung J E, et al. FASEB J. 19, 1296-1298 (2005)). The cells were washed two times with PBS and suspended in the lysate (50 mM Tris-HCl, pH 7.4, 350 mM NaCl, 1% Triton X-100, 0.5% Nonidet P-40, 10% glycerol, 0.1% SDS, 1 mM EDTA, 1 mM EGTA, 1 mM Na3VO4, 1 mM PMSF, protease and phosphorylation inhibitor) and the cell membrane and nuclear membrane were crushed to lyse the cells. The insoluble protein fraction was removed by centrifugation, and the supernatant was mixed with SDS electrophoresis buffer and electrophoresis (SDS-PAGE) was performed to detect the protein with the desired antibody and to confirm the protein expression level.
Target sequence in this assay (P40763 whole entry): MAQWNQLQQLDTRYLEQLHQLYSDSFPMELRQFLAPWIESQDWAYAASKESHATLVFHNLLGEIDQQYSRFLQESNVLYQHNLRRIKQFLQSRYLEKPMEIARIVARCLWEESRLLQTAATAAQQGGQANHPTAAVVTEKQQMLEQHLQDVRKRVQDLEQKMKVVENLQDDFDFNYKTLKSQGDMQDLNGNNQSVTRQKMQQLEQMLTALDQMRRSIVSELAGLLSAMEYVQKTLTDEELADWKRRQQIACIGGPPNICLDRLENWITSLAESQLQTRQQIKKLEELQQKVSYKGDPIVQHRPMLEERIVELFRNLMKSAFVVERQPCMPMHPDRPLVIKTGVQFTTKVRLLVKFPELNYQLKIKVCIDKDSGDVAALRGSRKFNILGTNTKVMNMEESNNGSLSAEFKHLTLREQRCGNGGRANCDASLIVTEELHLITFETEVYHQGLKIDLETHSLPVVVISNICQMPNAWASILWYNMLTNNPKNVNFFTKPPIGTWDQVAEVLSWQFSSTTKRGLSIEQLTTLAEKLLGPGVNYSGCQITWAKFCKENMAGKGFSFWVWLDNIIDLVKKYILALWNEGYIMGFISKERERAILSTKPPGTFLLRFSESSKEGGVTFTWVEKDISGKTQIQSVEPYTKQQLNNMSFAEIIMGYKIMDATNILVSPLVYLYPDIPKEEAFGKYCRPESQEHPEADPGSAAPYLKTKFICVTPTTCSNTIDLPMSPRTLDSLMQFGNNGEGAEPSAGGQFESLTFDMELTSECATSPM

STAT3 [2] = target: T1, STAT3; test: STAT3 activity in various human cancer cell lines with excessively activated or IL-6-induced STAT3; format: cell-based; set-up: endogenous in cells; host or cells: L540, HDLM-2, U87-MG, MDA-MB-231, further human glioblastoma and breast cancer lines
Method: as §1, §2
Target sequence in this assay (P40763 whole entry): as above

STAT92E = test: Drosophila cell luciferase assay (10XSTAT92E-luciferase reporter); format: cell-based; details: compared with DMSO-treated group, concentration-dependent
Method: Drosophila cells (S2-NP, 24×3) used in the experiment were cultured as previously described (Kim B H, et al. Mol Cancer Ther. 7, 2672-2680 (2008)). S2-NP (Drosophila Schneider cell) cells were Drosophila-derived macrophage-like cells and were cultured in Schneider's medium. 24×3 cells were cell lines stably expressed by inserting 10XSTAT92E-luciferase and PolIII-Renilla luciferase-labeled plasmid DNA as reporter constructs into S2-NP cells and were cultured in a medium prepared by adding […] of geneticin to the same medium as that for S2-NP. S2-NP cells in which unpaired (upd) or HOPT^Tum-l as a ligand was expressed and 24×3 cells constructed with reporter constructs were mixed at a constant ratio and cultured for 24 hours in the presence of a compound, the expression level of STAT92E was measured using a luminometer, and the inhibition effect was compared with that of the DMSO-treated group.

STAT3 [3] = target: T1, STAT3; test: STAT3 dimerization (STAT3-Flag / STAT3-HA, immunoprecipitation and western blot in HEK293T); format: cell-based; set-up: Flag; HA; expressed in transfected cells; host or cells: HEK293T
Target sequence in this assay (P40763 whole entry, species assumed): as the sequence (P40763 whole entry) above

MDA-MB-231 cells [4] = test: Wound healing assay, MDA-MB-231; format: cell-based, human; details: MDA-MB-231, 24 hours
Method: Wound healing assay was performed as previously described (Jung J E, et al. FASEB J. 19, 1296-1298 (2005)). The respective cells were dispensed into a 12-well plate (U87-MG: 5×10^5 cells/ml; MDA-MB-231: 3×10^5 cells/ml) and cultured until the cells proliferated 90% or more. Cells scraped off from the plate with the tip of the pipette were washed two times with PBS. After 24 hours, the proliferation (invasion) of cells at the part from which the cells were had been removed was observed under a microscope, and images were taken.

U87-MG cells = test: Human tumor cell xenograft, U87-MG; format: in vivo, BALB/c nude mice; details: injected directly into the tumor, versus DMSO
Method: Male Nude Mouse (BALB/cAnNCrj-nu/nu) was purchased from Charles River Japan Inc. (Shin-Yokohama, Japan). The mouse was bred in a clean room in which the temperature and humidity were constantly controlled. The breeding process was carried out according to the method described in the manual for maintenance of laboratory animals in Seoul National University. U87-MG cells or MDA-MB-231 cells were diluted with PBS, suspended in 100 μl of Matrigel at 25% concentration, and injected into the back of mouse and bred for 6 to 10 weeks. Human tumor growth was measured every other day using a vernier caliper from 2 weeks after cell injection. With regard to the degree of inhibition of human tumor cell formation, 40 μM of ODZ10117 was directly injected into the human tumor on days 0, 3, and 5 from week 4 of tumor cell injection. On the 7th day, the mouse was sacrificed to separate the tumor, and the tumor cell inhibitory efficacy of the drug was measured by being compared with that of the control group treated with 1% DMSO.

[5] = system: human malignant glioblastoma; test: Cell viability of human malignant glioblastoma with or without IL-6; format: cell-based; details: treated with IL-6 for 24 or 48 hours or not; various concentrations
MDA-MB-231 cells [6] = test: Matrigel invasion assay, MDA-MB-231; format: cell-based, human; details: MDA-MB-231, 24 hours, versus DMSO
Method: The growth factor-reduced Matrigel was diluted with a serum-free culture solution at a 1:3 ratio, transferred to a 24-well plate, and solidified at 37° C. for 5 hours. The cells were placed in a culture solution containing 1% serum and added to the solidified Matrigel, 600 μl of a culture solution containing 10% serum to which fibronectin was added at a concentration of […] was added thereto, and the cells were cultured for 24 hours. Thereafter, the cells were fixed and stained by adding Diffquick solution thereto and then observed under a Leica Application Suite microscope, and images were taken.

MMP-2 = test: Activity of MMP-2 in U87-MG and MDA-MB-231 cells; format: cell-based, human; details: U87-MG and MDA-MB-231, 24 hours
MDA-MB-231 cells [7] = test: Cell proliferation assay, MDA-MB-231; format: cell-based, human; details: MDA-MB-231, by time period, versus DMSO
Method: Cell proliferation assay was performed as previously described (Won C, et al. Anticancer Res. 30, 481-488 (2010)). In order to analyze the cell proliferation rate, U87-MG and MDA-MB-231 cell lines were dispensed into a 6-well culture dish, then treated with DMSO and ODZ10117 the next day, and stained with crystal violet after 0 h, 24 h, 48 h, and 72 h, and the number of live cells was calculated using a hemocytometer.

Structure (SMILES): Clc1ccc(OCc2noc(C(Cl)(Cl)Cl)n2)c(Cl)c1 [ODZ10117, 3-(2,4-dichloro-phenoxymethyl)-5-trichloromethyl-[1,2,4]oxadiazole]
- phosphorylation of tyrosine 705 and serine 727 residues of STAT3 (STAT3 [1]): significantly inhibited phosphorylation of tyrosine 705 and serine 727 residues of STAT3
- activity of STAT3 induced by IL-6 (STAT3 [2]; IL-6 induced): efficiently inhibited the activity of STAT3 induced by IL-6
- activity of STAT3 (STAT3 [2]; various human cancer cell lines in which STAT3 was excessively activated): inhibited the activity of STAT3 in all kinds of cell lines used in the experiment
- activity of STAT3 induced by IL-6, compared with known inhibitors (STAT3 [2]; versus NSC628869 and NSC74859): more efficiently inhibited the activity of STAT3 induced by IL-6 than NSC628869 and NSC74859
- promoter activity of STAT92E (STAT92E): significantly decreased the promoter activity of STAT92E
- STAT3 dimerization (STAT3 [3]): inhibited STAT3 dimerization
- STAT3 dimerization inhibitory efficacy compared with napabucasin (STAT3 [3]): superior STAT3 dimerization inhibitory efficacy to napabucasin
- cell migration (MDA-MB-231 cells [4]): significantly inhibited the migration of these cells
- tumor growth (U87-MG cells): significantly inhibited tumor growth
- cell survival [5]: cell survival was inhibited
- cell invasion (MDA-MB-231 cells [6]): significantly decreased cell invasion in both the two cell lines
- activity of MMP-2 (MMP-2): significantly decreased
- cell proliferation (MDA-MB-231 cells [7]): effectively inhibited the proliferation of the two cell lines
